Measured values taken from patent US20240166652A1, “MODULATORS OF THE INTEGRATED STRESS PATHWAY” (Calico Life Sciences LLC, priority 2017, published 2024).

System: ATF4 luciferase reporter in HEK293T cells
Assay: ATF4-Luc assay (ATF4 luciferase reporter, tunicamycin-treated HEK293T cells)
Assay type: cell-based, human
Details: Homo sapiens, HEK-293T; HEK293T cells carrying the ATF4 luciferase reporter, 1 μg/mL tunicamycin, 7 hours

SMILES | EC50 [nM]
CC(C)c1cc(OCC(=O)NC23CCC(NC(=O)COc4ccc(Cl)c(F)c4)(CC2)[C@@H](O)C3)cc(C(C)C)c1 [Compound 478, 2-(4-chloro-3-fluorophenoxy)-N-[(2S)-4-{2-[3,5-di(propan-2-yl)phenoxy]acetamido}-2-hydroxybicyclo[2.2.2]octan-1-yl]acetamide] | > 2000
O=C(COc1ccc(Cl)c(F)c1)NC12CC(NS(=O)(=O)Cc3ccccc3)(C1)C2 [Compound 479, 2-(4-chloro-3-fluorophenoxy)-N-{3-[(phenylmethanesulfonyl)amino]bicyclo[1.1.1]pentan-1-yl]acetamide] | > 2000
O=C(COc1ccc(Cl)c(F)c1)NC12CC(NS(=O)(=O)CCc3ccc(F)cc3)(C1)C2 [Compound 480, 2-(4-chloro-3-fluorophenoxy)-N-(3-{[2-(4-fluorophenyl)ethanesulfonyl]amino}bicyclo[1.1.1]pentan-1-yl)acetamide] | > 2000
O=C(COc1ccc(Cl)c(F)c1)NC12CC(NS(=O)(=O)Cc3ccccc3F)(C1)C2 [Compound 481, 2-(4-chloro-3-fluorophenoxy)-N-(3-{[(2-fluorophenyl)methanesulfonyl]amino}bicyclo[1.1.1]pentan-1-yl)acetamide] | > 2000
Cc1ccccc1CS(=O)(=O)NC12CC(NC(=O)COc3ccc(Cl)c(F)c3)(C1)C2 [Compound 482, 2-(4-chloro-3-fluorophenoxy)-N-(3-{[(2-methylphenyl)methanesulfonyl]amino}bicyclo[1.1.1]pentan-1-yl)acetamide] | > 2000
O=C(COc1ccc(Cl)c(F)c1)NC12CC(NS(=O)(=O)Cc3ccc(F)c(F)c3)(C1)C2 [Compound 483, 2-(4-chloro-3-fluorophenoxy)-N-(3-{[(3,4-difluorophenyl)methanesulfonyl]amino}bicyclo[1.1.1]pentan-1-yl)acetamide] | > 2000
O=C(COc1ccc(Cl)c(F)c1)NC12CC(NS(=O)(=O)Cc3cc(F)cc(F)c3)(C1)C2 [Compound 484, 2-(4-chloro-3-fluorophenoxy)-N-(3-{[(3,5-difluorophenyl)methanesulfonyl]amino}bicyclo[1.1.1]pentan-1-yl)acetamide] | > 2000
O=C(COc1ccc(Cl)c(F)c1)NC12CC(NS(=O)(=O)CCOc3ccccc3F)(C1)C2 [Compound 485, 2-(4-chloro-3-fluorophenoxy)-N-(3-{[2-(2-fluorophenoxy)ethanesulfonyl]amino}bicyclo[1.1.1]pentan-1-yl)acetamide] | 500 to 2000
Cc1cccc(CS(=O)(=O)NC23CC(NC(=O)COc4ccc(Cl)c(F)c4)(C2)C3)c1 [Compound 486, 2-(4-chloro-3-fluorophenoxy)-N-(3-{[(3-methylphenyl)methanesulfonyl]amino}bicyclo[1.1.1]pentan-1-yl)acetamide] | > 2000
O=C(COc1ccc(Cl)c(F)c1)NC12CC(NS(=O)(=O)Cc3ccc(F)cc3)(C1)C2 [Compound 487, 2-(4-chloro-3-fluorophenoxy)-N-(3-{[(4-fluorophenyl)methanesulfonyl]amino}bicyclo[1.1.1]pentan-1-yl)acetamide] | > 2000
O=C(COc1ccc(Cl)c(F)c1)NC12CC(NS(=O)(=O)CCOc3ccccc3)(C1)C2 [Compound 488, 2-(4-chloro-3-fluorophenoxy)-N-{3-[(2-phenoxyethanesulfonyl)amino]bicyclo[1.1.1]pentan-1-yl}acetamide] | > 2000
O=C(COc1ccc(Cl)c(F)c1)NC12CC(NS(=O)(=O)CCOc3ccc(F)cc3)(C1)C2 [Compound 489, 2-(4-chloro-3-fluorophenoxy)-N-(3-{[2-(4-fluorophenoxy)ethanesulfonyl]amino}bicyclo[1.1.1]pentan-1-yl)acetamide] | 500 to 2000
N#Cc1ccc(CS(=O)(=O)NC23CC(NC(=O)COc4ccc(Cl)c(F)c4)(C2)C3)cc1 [Compound 490, 2-(4-chloro-3-fluorophenoxy)-N-(3-{[(4-cyanophenyl)methanesulfonyl]amino}bicyclo[1.1.1]pentan-1-yl)acetamide] | 500 to 2000
O=C(COc1ccc(Cl)c(F)c1)NC12CC(NC(=O)Cc3cc(F)cc(F)c3)(C1)C2 [Compound 491, 2-(4-chloro-3-fluorophenoxy)-N-{3-[2-(3,5-difluorophenyl)acetamido]bicyclo[1.1.1]pentan-1-yl}acetamide] | > 2000
O=C(CNC(=O)c1ccccc1)NC12CC(NC(=O)COc3ccc(Cl)c(F)c3)(C1)C2 [Compound 492, N-[2-({3-[2-(4-chloro-3-fluorophenoxy)acetamido]bicyclo[1.1.1]pentan-1-yl}amino)-2-oxoethyl]benzamide] | > 2000
Cc1ncnc(C)c1OCC(=O)NC12CCC(NC(=O)COc3ccc(Cl)c(F)c3)(CC1)C[C@@H]2O [Compound 493, 2-(4-chloro-3-fluorophenoxy)-N-[(3S)-4-{2-[(4,6-dimethylpyrimidin-5-yl)oxy]acetamido}-3-hydroxybicyclo[2.2.2]octan-1-yl]acetamide] | > 2000

SMILES | EC50 [nM]
CCc1cc(C)cc(OCC(=O)NC23CCC(NC(=O)COc4ccc(Cl)c(F)c4)(CC2)C[C@@H]3O)c1 [Compound 494, 2-(4-chloro-3-fluorophenoxy)-N-{(3S)-4-[2-(3-ethyl-5-methylphenoxy)acetamido]-3-hydroxybicyclo[2.2.2]octan-1-yl}acetamide] | 250 to 500
O=C(COc1ccc(Cl)c(F)c1)NC12CCC(NC(=O)COc3cccnc3)(CC1)[C@@H](O)C2 [Compound 495, 2-(4-chloro-3-fluorophenoxy)-N-[(3S)-3-hydroxy-4-{2-[(pyridin-3-yl)oxy]acetamido}bicyclo[2.2.2]octan-1-yl]acetamide] | 10 to 50
CC(C)c1cc(OCC(=O)NC23CCC(NC(=O)COc4ccc(Cl)c(F)c4)(CC2)C[C@@H]3O)cc(C(C)C)c1 [Compound 496, 2-(4-chloro-3-fluorophenoxy)-N-[(3S)-4-{2-[3,5-di(propan-2-yl)phenoxy]acetamido}-3-hydroxybicyclo[2.2.2]octan-1-yl]acetamide] | 500 to 2000
COc1cc(OCC(=O)NC23CCC(NC(=O)COc4ccc(Cl)c(F)c4)(CC2)C[C@@H]3O)nc(SC)n1 [Compound 497, 2-(4-chloro-3-fluorophenoxy)-N-[(3S)-3-hydroxy-4-(2-{[6-methoxy-2-(methylsulfanyl)pyrimidin-4-yl]oxy}acetamido)bicyclo[2.2.2]octan-1-yl]acetamide] | 500 to 2000
COc1cc(OC)nc(OCC(=O)NC23CCC(NC(=O)COc4ccc(Cl)c(F)c4)(CC2)C[C@@H]3O)n1 [Compound 498, 2-(4-chloro-3-fluorophenoxy)-N-[(3S)-4-{2-[(4,6-dimethoxypyrimidin-2-yl)oxy]acetamido}-3-hydroxybicyclo[2.2.2]octan-1-yl]acetamide] | 250 to 500
Cc1ncc2c(c1OCC(=O)NC13CCC(NC(=O)COc4ccc(Cl)c(F)c4)(CC1)C[C@@H]3O)COC2 [Compound 499, 2-(4-chloro-3-fluorophenoxy)-N-[(3S)-3-hydroxy-4-{2-[(6-methyl-1,3-dihydrofuro[3,4-c]pyridin-7-yl)oxy]acetamido}bicyclo[2.2.2]octan-1-yl]acetamide] | > 2000
O=C(COc1ccc(Cl)c(F)c1)NC12CCC(NC(=O)COc3cccc(C(F)(F)F)c3)(CC1)[C@@H](O)C2 [Compound 501, 2-(4-chloro-3-fluorophenoxy)-N-[(3S)-3-hydroxy-4-{2-[3-(trifluoromethyl)phenoxy]acetamido}bicyclo[2.2.2]octan-1-yl]acetamide] | < 10
Cc1cc(C)cc(OCC(=O)NC23CCC(NC(=O)COc4ccc(Cl)c(F)c4)(CC2)C[C@@H]3O)c1 [Compound 502, 2-(4-chloro-3-fluorophenoxy)-N-{(3S)-4-[2-(3,5-dimethylphenoxy)acetamido]-3-hydroxybicyclo[2.2.2]octan-1-yl}acetamide] | 50 to 250
Cc1cc(OCC(=O)NC23CCC(NC(=O)COc4ccc(Cl)c(F)c4)(CC2)C[C@@H]3O)cc(C)c1C [Compound 503, 2-(4-chloro-3-fluorophenoxy)-N-{(3S)-3-hydroxy-4-[2-(3,4,5-trimethylphenoxy)acetamido]bicyclo[2.2.2]octan-1-yl]acetamide] | 10 to 50
CS(=O)(=O)c1ccc(OCC(=O)NC23CCC(NC(=O)COc4ccc(Cl)c(F)c4)(CC2)C[C@@H]3O)cc1 [Compound 504, 2-(4-chloro-3-fluorophenoxy)-N-[(3S)-3-hydroxy-4-{2-[4-(methanesulfonyl)phenoxy]acetamido}bicyclo[2.2.2]octan-1-yl] acetamide] | 50 to 250
O=C(COc1ccc(Cl)c(F)c1)NC12CCC(NC(=O)COc3ccc(OC(F)(F)F)cc3)(CC1)[C@@H](O)C2 [Compound 505, 2-(4-chloro-3-fluorophenoxy)-N-[(3S)-3-hydroxy-4-{2-[4-(trifluoromethoxy)phenoxy]acetamido}bicyclo[2.2.2]octan-1-yl] acetamide] | < 10
CC(C)(C)c1ccc(OCC(=O)NC23CCC(NC(=O)COc4ccc(Cl)c(F)c4)(CC2)C[C@@H]3O)cc1 [Compound 506, 2-(4-tert-butylphenoxy)-N-{(2S)-4-[2-(4-chloro-3-fluorophenoxy)acetamido]-2-hydroxybicyclo[2.2.2]octan-1-yl}acetamide] | 250 to 500
O=C(COc1ccc(Cl)c(F)c1)NC12CCC(NC(=O)COc3ccc(C(F)(F)F)cc3)(CC1)[C@@H](O)C2 [Compound 507, 2-(4-chloro-3-fluorophenoxy)-N-[(3S)-3-hydroxy-4-{2-[4-(trifluoromethyl)phenoxy]acetamido}bicyclo[2.2.2]octan-1-yl]acetamide] | < 10
CCOc1ccc(OCC(=O)NC23CCC(NC(=O)COc4ccc(Cl)c(F)c4)(CC2)C[C@@H]3O)cc1 [Compound 508, 2-(4-chloro-3-fluorophenoxy)-N-{(3S)-4-[2-(4-ethoxyphenoxy)acetamido]-3-hydroxybicyclo[2.2.2]octan-1-yl}acetamide] | 10 to 50
Cc1cccc(OCC(=O)NC23CCC(NC(=O)COc4ccc(Cl)c(F)c4)(CC2)C[C@@H]3O)c1 [Compound 509, 2-(4-chloro-3-fluorophenoxy)-N-{(3S)-3-hydroxy-4-[2-(3-methylphenoxy)acetamido]bicyclo[2.2.2]octan-1-yl}acetamide] | < 10
